This is an account of results in US7807828B2, “Olanzapine analogs and methods of use thereof” (Hypnion, Inc., priority 2005, dated 2010).

Some results are limits rather than exact numbers.

For test [1], the target named is T1, histamine H1 receptor (bovine) (Bos taurus, UniProt P30546).
T1 construct: the receptors were obtained from bovine cerebellar membrane tissue; from tissue; host or cells: bovine cerebellar membranes
Briefly: Histamine H1 binding assay, bovine cerebellar membranes, [3H]pyrilamine. Particulars: for Ki: Table 7A, Ki in nM.

Test [2] concerns the target T2, human recombinant M2 expressed in CHO cells (Homo sapiens, UniProt P08172).
T2 construct: purchased PerkinElmer, Inc., Wellesley, Mass; host or cells: CHO cells
T2 sequence (P08172 1-466): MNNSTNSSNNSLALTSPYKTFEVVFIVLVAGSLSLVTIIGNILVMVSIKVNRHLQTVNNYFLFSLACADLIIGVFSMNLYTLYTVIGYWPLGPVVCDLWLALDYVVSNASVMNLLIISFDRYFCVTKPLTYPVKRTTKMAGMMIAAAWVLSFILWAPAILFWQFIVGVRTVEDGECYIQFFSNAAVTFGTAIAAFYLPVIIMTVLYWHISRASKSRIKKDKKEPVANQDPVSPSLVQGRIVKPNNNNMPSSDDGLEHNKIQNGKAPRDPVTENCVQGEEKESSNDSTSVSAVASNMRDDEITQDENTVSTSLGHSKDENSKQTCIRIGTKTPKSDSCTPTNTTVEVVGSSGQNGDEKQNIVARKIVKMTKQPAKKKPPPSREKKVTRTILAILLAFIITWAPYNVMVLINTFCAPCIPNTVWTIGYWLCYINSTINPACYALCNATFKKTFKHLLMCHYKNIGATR
Briefly: M2 muscarinic receptor binding assay. The conditions noted are these: Table 7A, M1 M2 M3.

In test [3] the target is T3, human recombinant M3 expressed in CHO cells (Homo sapiens, UniProt P20309).
T3 construct: purchased PerkinElmer, Inc., Wellesley, Mass; host or cells: CHO cells
T3 sequence (P20309 whole entry): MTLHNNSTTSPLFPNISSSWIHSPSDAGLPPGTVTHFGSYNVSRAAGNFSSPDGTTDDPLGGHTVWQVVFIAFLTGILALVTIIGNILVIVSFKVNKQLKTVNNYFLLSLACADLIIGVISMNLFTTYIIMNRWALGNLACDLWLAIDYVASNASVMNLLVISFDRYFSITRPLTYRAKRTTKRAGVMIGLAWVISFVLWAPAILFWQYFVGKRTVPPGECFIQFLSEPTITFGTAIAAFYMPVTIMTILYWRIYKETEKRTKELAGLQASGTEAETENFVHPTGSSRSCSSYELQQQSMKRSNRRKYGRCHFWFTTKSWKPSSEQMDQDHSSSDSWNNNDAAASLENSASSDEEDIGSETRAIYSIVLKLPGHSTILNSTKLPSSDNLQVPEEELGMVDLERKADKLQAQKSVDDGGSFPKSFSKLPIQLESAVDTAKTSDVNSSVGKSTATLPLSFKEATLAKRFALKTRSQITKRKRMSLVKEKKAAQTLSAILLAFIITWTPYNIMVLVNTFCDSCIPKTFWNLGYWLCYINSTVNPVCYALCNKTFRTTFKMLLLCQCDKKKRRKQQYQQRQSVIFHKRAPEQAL
Nature of the test: M3 muscarinic receptor binding assay. Particulars: Table 7A, third line of column M1 M2 M3.

Test [4] has as its target H1 (rat) (Rattus norvegicus, UniProt P31390). Briefly: H1 (rat) competitive binding assay. The conditions noted are these: Table 7A; Ki in nM. The method, then:
Binding assays were performed using various sleep-inducing agents and derivatives selected from those listed in Table 1 in competitive binding assays with known standards for the H1 histamine receptor, and the M1, M2, and M3 muscarinic receptors, alpha 1 and alpha 2 receptors, D1 and D2 receptors, 5HT2a, 5HT2b, 5HT2c, 5HT2c, and 5HT7 receptors.
The histamine H1 assays are described in Chang, et al., Heterogeneity of Histamine H1-Receptors: Species Variation in [^3H]Mepyramine Binding of Brain Membranes. Journal of Neurochemistry. 32: 1653-1663 (1979); Martinez-Mir, M. I., Pollard, H., Moreau, J., et al. Three Histamine Receptors (H1, H2, and H3) Visualized in the Brain of Human and Non-Human Primates. Brain Res. 526: 322-327 (1990); Haaksma, E. E. J., Leurs, R. and Timmerman, H. Histamine Receptors: Subclasses and Specific Ligands. Pharmac. Ther. 47: 73-104 (1990). The muscarinic assays are described in Buckley, N. J., Bonner, T. I., Buckley, C. M., and Brann, M. R. Antagonist Binding Properties of Five Cloned Muscarinic Receptors Expressed in CHO-K1 Cells. Mol. Pharmacol. 35: 469-476 (1989). The assays were performed according to the preceding articles, with the following modifications. Chemical reagents in the following were obtained from Sigma, St. Louis, Mo.

For test [5], the system named is adult, male Wistar rats. Briefly: Sleep-wakefulness monitoring (SCORE-2000, EEG/EMG) in rats. The format is in vivo, rat. The conditions noted are these: minutes; for LONGEST UNINTERRUPTED SLEEP BOUT 10 mg/kg / NREM CUMULATION 10 mg/kg: oral bolus at CT-18, 10 mg/kg. As for the experimental part:
Sleep-wakefulness, locomotor activity and body temperature are monitored in male Wistar rats treated with a test compound (i.e., olanzapine analog) initially at a concentration of 10 mg/kg. Higher and lower doses are assayed for select compounds (e.g., as high as 45 mg/kg, and as low as necessary to establish a no-effect dose). Treatments are administered at CT-18, the peak of the activity dominated period (6 hours after lights-off), and produced soporific (sleep-inducing) effects characterized by increased non-REM sleep time, increased sleep continuity, but without evidence of REM sleep inhibition or rebound insomnia.
Sleep-wakefulness, locomotor activity and body temperature were monitored in vivo with various compounds of the invention. Adult, male Wistar rats (250 g at time of surgery, Charles River Laboratories, Wilmington Mass.) were anesthetized (2% isoflourane in medical grade oxygen) and surgically prepared with a cranial implant to permit chronic electro-encephalogram (EEG) and electromyogram (EMG) recording. Body temperature and locomotor activity were monitored via a miniature transmitter (Mini-Mitter, Bend, Oreg.) surgically placed in the abdomen. The cranial implant consisted of stainless steel screws (two frontal (+3.2 AP from bregma, ±2.0 ML) and two occipital (−6.9 AP, ±5.5 ML)) for EEG recording. Two Teflon®-coated stainless steel wires were positioned under the nuchal trapezoid muscles for EMG recording. All leads were soldered to a miniature connector prior to surgery, and gas sterilized in ethylene oxide. The implant assembly was affixed to the skull with dental acrylic. A minimum of three weeks was allowed for surgical recovery.
Each rat was permanently housed in its own individual recording cage located within separate, ventilated compartments of custom-designed stainless steel cabinets. Each cage was enhanced with a filter-top riser and low-torque swivel-commutator. Food and water were available ad libitum. A 24-hr light-dark cycle (12 hours light, 12 hours dark) was maintained throughout the study. Animals were undisturbed for at least 48 hours before and after treatments.
Sleep and wakefulness were determined using “SCORE-2000™” (Hypnion, Worcester, Mass.)—an internet-based sleep-wake and physiological monitoring system. The system monitored amplified EEG (bandpass 1-30 Hz), integrated EMG (bandpass 10-100 Hz), body temperature and non-specific locomotor activity (LMA) via telemetry, and drinking activity, continuously and simultaneously. Arousal states were classified on-line as non-REM (NREM) sleep, REM sleep, wake, or theta-dominated wake every 10 seconds. Total drinking and locomotor activity counts, and body temperature were quantitiated and recorded each minute, using EEG feature extraction and pattern-matching algorithms. […] The classification algorithm used individually-taught EEG-arousal-state templates, plus EMG criteria to differentiate REM sleep from theta-dominated wakefulness, plus behavior-dependent contextual rules (e.g., if the animal was drinking, it is awake). Drinking and locomotor activity intensity (LMA) were recorded every 10 seconds, while body temperature was recorded each minute. Locomotor activity was detected by a telemetry receiver (Mini-Mitter) beneath the cage. Telemetry measures (LMA and body temperature) were not part of the scoring algorithm; thus, sleep-scoring and telemetry data were independent measures.
Compounds were administered at CT-18, the peak of the activity-dominated period, sufficient time was allowed to view the time course of the treatment effect before lights-on (6 hours post-treatment). Compounds were suspended in sterile 0.25% or 0.5% methylcellulose (1-2 ml/kg). Treatments were administered orally as a bolus.
A parallel group study design was employed. […]

T1 sequence (P30546 whole entry): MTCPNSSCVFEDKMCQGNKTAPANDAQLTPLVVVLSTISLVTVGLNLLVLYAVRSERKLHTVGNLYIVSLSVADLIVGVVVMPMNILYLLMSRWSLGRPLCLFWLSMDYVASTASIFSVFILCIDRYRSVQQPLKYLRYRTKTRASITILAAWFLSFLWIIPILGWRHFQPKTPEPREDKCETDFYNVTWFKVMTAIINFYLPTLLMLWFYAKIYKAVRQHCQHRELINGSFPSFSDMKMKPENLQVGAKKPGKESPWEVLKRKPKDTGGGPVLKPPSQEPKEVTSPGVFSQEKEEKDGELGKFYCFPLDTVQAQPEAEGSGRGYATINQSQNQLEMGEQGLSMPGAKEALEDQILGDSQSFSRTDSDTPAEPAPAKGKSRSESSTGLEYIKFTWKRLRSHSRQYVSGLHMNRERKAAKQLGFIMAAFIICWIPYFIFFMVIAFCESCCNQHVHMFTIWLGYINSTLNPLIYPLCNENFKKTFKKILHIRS
Chain of H1 (rat) (P31390 whole entry): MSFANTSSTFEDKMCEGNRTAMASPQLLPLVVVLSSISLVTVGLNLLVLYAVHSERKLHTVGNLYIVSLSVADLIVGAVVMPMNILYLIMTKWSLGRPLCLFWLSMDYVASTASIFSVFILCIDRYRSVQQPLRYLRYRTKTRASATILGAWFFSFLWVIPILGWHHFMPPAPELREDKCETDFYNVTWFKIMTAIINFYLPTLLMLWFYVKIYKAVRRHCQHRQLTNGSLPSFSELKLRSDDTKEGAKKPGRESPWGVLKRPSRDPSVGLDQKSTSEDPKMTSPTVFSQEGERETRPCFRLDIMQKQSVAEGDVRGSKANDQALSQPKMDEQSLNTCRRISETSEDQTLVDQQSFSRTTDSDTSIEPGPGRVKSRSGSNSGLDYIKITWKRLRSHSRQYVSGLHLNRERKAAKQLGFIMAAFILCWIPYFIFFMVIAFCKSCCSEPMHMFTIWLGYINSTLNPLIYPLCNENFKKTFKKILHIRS

What is called Ki is a dissociation constant, usually derived from enzyme kinetics or from competition with a known ligand. Turning to `Cc1cc2c(s1)Nc1ccccc1N=C2N1CCN(CC(C)(C)C(=O)O)CC1` [Compound 46], the Ki in test [1] was 56 nM; in test [2], greater than 10000 nM; in test [3] it was greater than 10000 nM; in test [4], 34 nM. In addition, the “specificity for H1 over the muscarinic receptors” value in test [1] (from Ki for H1 and M1, M2, M3) is recorded as “highly specific for H1 over the muscarinic receptors”. In addition, the “LONGEST UNINTERRUPTED SLEEP BOUT 0.3 mg/kg” value in test [5] (oral bolus at CT-18, 0.3 mg/kg) worked out at 3.9 min. Besides, the “LONGEST UNINTERRUPTED SLEEP BOUT 1 mg/kg” value in test [5] (oral bolus at CT-18, 1 mg/kg) amounted to 11.8 ± 2.7 min. In addition, in test [5] (oral bolus at CT-18, 3 mg/kg), the “LONGEST UNINTERRUPTED SLEEP BOUT 3 mg/kg” value was determined as 10.8 ± 3.2 min. Further, in test [5] (oral bolus at CT-18, 3 mg/kg), the “NREM CUMULATION 3 mg/kg” value is 38 ± 4 min. The “LONGEST UNINTERRUPTED SLEEP BOUT 10 mg/kg” value in test [5] amounted to 15.5 ± 4.1 min. Also, in test [5], the “NREM CUMULATION 10 mg/kg” value stood at 42 ± 5 min.

As for `CCc1cc2c(s1)Nc1ccccc1N=C2N1CCN(CC(C)(C)C(=O)O)CC1` [Compound 90], the Ki is 30 nM in test [1], greater than 10000 nM in test [2], greater than 10000 nM in test [3] and 55.5 nM in test [4]. Also, in test [5] (oral bolus at CT-18, 3 mg/kg), the “LONGEST UNINTERRUPTED SLEEP BOUT 3 mg/kg” value came to 12.3 ± 4.0 min. Further, the “NREM CUMULATION 10 mg/kg” value in test [5] was determined as 48 ± 8 min.

On to `Cc1cc2c(s1)Nc1ccccc1N=C2N1CCN(CC2(C(=O)O)CC2)CC1` [Compound 91], for which the Ki in test [1] is 30.1 nM; in test [2] it was greater than 10000 nM; in test [3], greater than 10000 nM; in test [4], 53 nM. Also, the “LONGEST UNINTERRUPTED SLEEP BOUT 10 mg/kg” value in test [5] was 10.7 ± 3.2 min. Moreover, the “NREM CUMULATION 10 mg/kg” value in test [5] amounted to 26 ± 4 min.

On to `Cc1cc2c(s1)Nc1ccccc1N=C2N1CCN(CCC(=O)O)CC1` [Compound 92], for which the Ki is 53.5 nM in test [1], greater than 10000 nM in test [2], greater than 10000 nM in test [3] and 95.6 nM in test [4]. Also, the “LONGEST UNINTERRUPTED SLEEP BOUT 10 mg/kg” value in test [5] was 3.1 ± 2.5 min. Also, the “NREM CUMULATION 10 mg/kg” value in test [5] is 10 ± 4 min. Also, in test [5] (oral bolus at CT-18, 30 mg/kg), the “LONGEST UNINTERRUPTED SLEEP BOUT 30 mg/kg” value came to 5.7 ± 1.8 min. Moreover, the “NREM CUMULATION 30 mg/kg” value in test [5] (oral bolus at CT-18, 30 mg/kg) amounted to 27 ± 4 min.

With `CC(C)c1cc2c(s1)Nc1ccccc1N=C2N1CCN(CC(C)(C)C(=O)O)CC1` [Compound 94], the Ki in test [1] is 45.2 nM; in test [2] it was greater than 10000 nM; in test [3], greater than 10000 nM; in test [4], 110 nM. Further, the “LONGEST UNINTERRUPTED SLEEP BOUT 10 mg/kg” value in test [5] turned out to be 19.9 ± 3.7 min. Further, the “NREM CUMULATION 10 mg/kg” value in test [5] is 47 ± 6 min.
